# From ChEMBL document CHEMBL1134604, “2-Alkynyl-8-aryl-9-methyladenines as novel adenosine receptor antagonists: their synthesis and structure-activity relationships toward hepatic glucose production induced via agonism of the A(2B) receptor” (J Med Chem, 2001)
# How the values were obtained:
# Adenosine receptor A1 [1] = target: T1, Adenosine receptor A1 (Homo sapiens, UniProt P30542); assay: Binding Affinity towards Adenosine A1 receptor expressed in CHO-K1 cells versus [3H]CCPA; assay type: cell-based
# T1 sequence (P30542 whole entry): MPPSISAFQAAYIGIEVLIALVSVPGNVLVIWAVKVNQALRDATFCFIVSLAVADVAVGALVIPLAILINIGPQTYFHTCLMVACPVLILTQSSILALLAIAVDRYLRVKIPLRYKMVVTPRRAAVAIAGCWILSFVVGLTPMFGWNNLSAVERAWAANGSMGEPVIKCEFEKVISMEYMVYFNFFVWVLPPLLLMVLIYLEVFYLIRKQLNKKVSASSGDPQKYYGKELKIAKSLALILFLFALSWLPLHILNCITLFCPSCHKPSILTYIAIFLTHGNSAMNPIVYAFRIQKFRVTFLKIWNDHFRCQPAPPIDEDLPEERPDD
# Adenosine receptor A2b [2] = target: T2, Adenosine receptor A2b (Homo sapiens, UniProt P29275); assay: Inhibitory activity on NECA-induced cyclic-AMP accumulation in CHO-K1 cells expressing human Adenosine A2B receptor; assay type: functional, cell-based
# T2 sequence (P29275 whole entry): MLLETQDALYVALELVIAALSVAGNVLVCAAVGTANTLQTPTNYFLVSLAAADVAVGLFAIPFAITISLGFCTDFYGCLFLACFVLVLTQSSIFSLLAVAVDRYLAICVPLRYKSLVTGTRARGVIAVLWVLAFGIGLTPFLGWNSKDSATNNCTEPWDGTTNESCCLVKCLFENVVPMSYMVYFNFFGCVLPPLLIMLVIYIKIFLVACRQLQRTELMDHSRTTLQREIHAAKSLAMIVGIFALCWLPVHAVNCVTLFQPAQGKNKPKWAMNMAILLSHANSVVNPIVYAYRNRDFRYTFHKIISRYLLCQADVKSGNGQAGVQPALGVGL
# Adenosine receptor A1 [3] = target: T3, Adenosine receptor A1 (Rattus norvegicus, UniProt P25099); assay: Inhibitory activity against cyclic AMP production in rat Adenosine A1 receptor assay
# T3 sequence (P25099 whole entry): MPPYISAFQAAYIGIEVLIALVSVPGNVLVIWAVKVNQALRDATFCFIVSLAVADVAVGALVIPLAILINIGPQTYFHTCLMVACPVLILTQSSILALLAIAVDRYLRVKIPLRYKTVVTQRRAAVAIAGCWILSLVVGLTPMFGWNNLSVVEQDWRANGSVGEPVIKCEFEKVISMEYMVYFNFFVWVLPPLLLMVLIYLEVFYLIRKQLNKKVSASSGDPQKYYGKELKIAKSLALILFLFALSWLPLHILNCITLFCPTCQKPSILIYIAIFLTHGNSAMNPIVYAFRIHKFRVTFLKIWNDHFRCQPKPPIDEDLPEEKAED
# Adenosine receptor A3 [4] = target: T4, Adenosine receptor A3 (Homo sapiens, UniProt P0DMS8); assay: Binding affinity towards adenosine A3 receptor expressed in HEK293 cells versus [125I]AB-MECA; assay type: cell-based
# T4 sequence (P0DMS8 whole entry): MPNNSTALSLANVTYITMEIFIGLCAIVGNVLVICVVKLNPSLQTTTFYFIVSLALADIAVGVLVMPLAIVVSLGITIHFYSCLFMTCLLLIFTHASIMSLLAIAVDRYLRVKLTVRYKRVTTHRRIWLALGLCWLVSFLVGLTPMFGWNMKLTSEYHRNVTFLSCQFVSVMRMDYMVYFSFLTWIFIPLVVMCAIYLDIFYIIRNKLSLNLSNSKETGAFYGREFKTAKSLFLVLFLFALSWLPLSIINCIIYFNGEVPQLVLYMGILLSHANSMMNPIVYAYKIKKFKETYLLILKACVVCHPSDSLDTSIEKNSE
# Adenosine receptor A2a [5] = target: T5, Adenosine receptor A2a (Homo sapiens, UniProt P29274); assay: Binding Affinity towards Adenosine A2A receptor expressed in HEK293 cells versus [3H]CGS-21680; assay type: cell-based
# T5 sequence (P29274 whole entry): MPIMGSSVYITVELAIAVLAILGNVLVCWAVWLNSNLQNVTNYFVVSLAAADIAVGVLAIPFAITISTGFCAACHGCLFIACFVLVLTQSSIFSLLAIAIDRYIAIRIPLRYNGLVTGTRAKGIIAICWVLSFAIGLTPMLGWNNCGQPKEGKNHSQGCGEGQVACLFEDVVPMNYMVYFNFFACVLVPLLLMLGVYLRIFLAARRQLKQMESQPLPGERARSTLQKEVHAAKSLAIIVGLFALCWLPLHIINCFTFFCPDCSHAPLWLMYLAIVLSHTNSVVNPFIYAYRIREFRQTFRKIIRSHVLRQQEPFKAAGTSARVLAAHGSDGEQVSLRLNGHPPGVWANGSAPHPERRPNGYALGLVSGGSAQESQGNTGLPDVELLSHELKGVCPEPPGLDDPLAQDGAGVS
# Adenosine receptor A2b [6] = target: T6, Adenosine receptor A2b (Rattus norvegicus, UniProt P29276); assay: Inhibitory activity on N-ethylcarboxamidoadenosine (NECA)-induced glucose production in primary cultured rat hepatocytes; assay type: functional, cell-based, Hepatocyte
# T6 sequence (P29276 whole entry): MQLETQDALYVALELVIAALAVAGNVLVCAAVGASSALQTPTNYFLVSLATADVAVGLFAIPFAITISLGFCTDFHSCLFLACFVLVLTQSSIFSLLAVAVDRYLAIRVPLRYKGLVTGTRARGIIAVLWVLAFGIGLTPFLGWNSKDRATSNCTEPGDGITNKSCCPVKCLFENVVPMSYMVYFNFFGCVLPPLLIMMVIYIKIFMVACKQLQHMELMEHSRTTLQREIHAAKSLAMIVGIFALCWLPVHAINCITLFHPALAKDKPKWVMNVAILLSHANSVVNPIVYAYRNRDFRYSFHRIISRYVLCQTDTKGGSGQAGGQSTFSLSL
# Adenosine receptor A2b [7] = target: T2, Adenosine receptor A2b; assay: Inhibitory activity against cyclic AMP production in human Adenosine A2B receptor assay
# Adenosine receptor A2a [8] = target: T5, Adenosine receptor A2a; assay: Binding Affinity for adenosine A2A receptor expressed in HEK293 cells compared to [3H]CGS-21680; assay type: cell-based
# Adenosine receptor A3 [9] = target: T4, Adenosine receptor A3; assay: Inhibitory activity against cyclic AMP production in human adenosine A3 receptor assay
# [10] = target: Adenosine receptor A2a (Rattus norvegicus) (UniProt P30543); assay: Inhibitory activity against cyclic AMP production in rat Adenosine A2A receptor assay
# Chain of Adenosine receptor A2a (Rattus norvegicus) (P30543 whole entry, looked up): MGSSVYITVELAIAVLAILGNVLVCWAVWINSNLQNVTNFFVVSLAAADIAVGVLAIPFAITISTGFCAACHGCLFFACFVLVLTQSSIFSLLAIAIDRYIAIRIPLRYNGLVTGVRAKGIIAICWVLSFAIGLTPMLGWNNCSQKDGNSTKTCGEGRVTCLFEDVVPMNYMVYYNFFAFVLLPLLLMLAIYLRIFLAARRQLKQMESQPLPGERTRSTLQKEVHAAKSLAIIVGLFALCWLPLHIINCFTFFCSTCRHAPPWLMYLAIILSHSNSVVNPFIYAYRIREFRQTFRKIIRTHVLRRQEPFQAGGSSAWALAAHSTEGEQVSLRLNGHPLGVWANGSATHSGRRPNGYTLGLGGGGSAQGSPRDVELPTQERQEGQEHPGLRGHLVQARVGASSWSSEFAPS
Structure (SMILES),Ki (Adenosine receptor A1 [1]) [nM],IC50 (Adenosine receptor A2b [2]) [nM],IC50 (Adenosine receptor A2b [6]) [nM],also measured
CCCn1c(=O)c2c(nc(/C=C/c3ccc(OC)c(OC)c3)n2C)n(CCC)c1=O,> 10000,1500,,IC50 (Adenosine receptor A1 [3]): 62 nM; Ki (Adenosine receptor A3 [4]): 2500 nM
Cn1c(-c2cccc(F)c2)nc2c(N)nc(C#CC3(O)CCCCCC3)nc21,27,49,440,Ki (Adenosine receptor A2a [5]): 19 nM
COc1cccc(-c2nc3c(N)nc(C#CC4(O)CCCCC4)nc3n2C)c1,,,1600,
Cn1c(-c2cccc(F)c2)nc2c(N)nc(C#CC(C)(C)O)nc21,30,150,510,Ki (Adenosine receptor A2a [5]): 9.1 nM; Ki (Adenosine receptor A3 [4]): 2100 nM
Cn1c(-c2ccc(F)cc2)nc2c(N)nc(C#CC3(O)CCCCC3)nc21,,160,1200,
Cn1c(-c2cccc(F)c2)nc2c(N)ncnc21,,,5300,
Cn1c(-c2cccc(C#N)c2)nc2c(N)nc(C#CC3(O)CCCCC3)nc21,130,72,410,Ki (Adenosine receptor A2a [5]): 13 nM
COc1ccc(-c2nc3c(N)nc(C#CC4(O)CCCCC4)nc3n2C)cc1F,,,> 10000,
Cc1cccc(-c2nc3c(N)nc(C#CC4(O)CCCCC4)nc3n2C)c1,,,970,
Cn1c(-c2ccc(Cl)cc2)nc2c(N)nc(C#CC3(O)CCCCC3)nc21,,500,6300,
Cn1c(-c2ccccn2)nc2c(N)nc(C#CC3(O)CCCCC3)nc21,,,1300,
Cn1c(-c2cccc(C(F)(F)F)c2)nc2c(N)nc(C#CC3(O)CCCCC3)nc21,,5600,> 10000,
Cn1cnc2c(N)nc(C#CC3(O)CCCCC3)nc21,,,4400,
COC(=O)C1=C2C=CN(C)C=C2c2nc(-c3ccccc3)nn2C1,> 10000,3000,> 10000,IC50 (Adenosine receptor A2b [7]): 3000 nM; Ki (Adenosine receptor A2a [8]): > 10000 nM
Cn1c(=O)c2[nH]c(-c3ccccc3)nc2n(C)c1=O [8-PHENYL THEOPHYLLINE],,210,1100,IC50 (Adenosine receptor A2b [7]): 210 nM; IC50 (Adenosine receptor A3 [9]): 1250 nM; IC50 [10]: 454 nM
O=C(/C=C/c1c(-c2ccccc2)nn2ccccc12)N1CCCC[C@@H]1CCO [FK453],18,,8100,IC50 (Adenosine receptor A1 [3]): 17.2 nM; Ki (Adenosine receptor A3 [4]): 2800 nM

# More lines, in order of falling IC50 (Adenosine receptor A2b [6]), values ahead:
Ki (Adenosine receptor A1 [1]) [nM],IC50 (Adenosine receptor A2b [2]) [nM],IC50 (Adenosine receptor A2b [6]) [nM],Structure (SMILES),also measured
,,760,Cn1c(-c2ccccc2)nc2c(N)nc(C#CC3(O)CCCCC3)nc21,
,,750,Cn1c(-c2cccs2)nc2c(N)nc(C#CC3(O)CCCCC3)nc21,
,,720,Cn1c(-c2cccc(F)c2)nc2c(N)nc(C#CC3CCCC3)nc21,
29,140,540,CCC(O)(C#Cc1nc(N)c2nc(-c3cccc(F)c3)n(C)c2n1)CC,Ki (Adenosine receptor A2a [5]): 13 nM; Ki (Adenosine receptor A3 [4]): 330 nM
,,490,Cn1c(-c2cccc(Cl)c2)nc2c(N)nc(C#CC3(O)CCCCC3)nc21,
19,77,440,Cn1c(-c2ccccc2F)nc2c(N)nc(C#CC3(O)CCCCC3)nc21,Ki (Adenosine receptor A2a [5]): 15 nM
20,63,420,Cn1c(-c2cccc(F)c2)nc2c(N)nc(C#CC3(O)CCCC3)nc21,Ki (Adenosine receptor A3 [4]): 1100 nM
14,23,250,Cn1c(-c2cccc(F)c2)nc2c(N)nc(C#CC3(O)CCCCC3)nc21,Ki (Adenosine receptor A2a [5]): 16 nM; Ki (Adenosine receptor A3 [4]): 540 nM
25,14,220,Cn1c(-c2ccco2)nc2c(N)nc(C#CC3(O)CCCCC3)nc21,Ki (Adenosine receptor A2a [5]): 11 nM
